According to ChEMBL document CHEMBL3886773, “Immune system modulators” (2016):

Molecular target: T1, Toll-like receptor 9 (Homo sapiens, UniProt Q9NR96)
T1 sequence (Q9NR96 whole entry): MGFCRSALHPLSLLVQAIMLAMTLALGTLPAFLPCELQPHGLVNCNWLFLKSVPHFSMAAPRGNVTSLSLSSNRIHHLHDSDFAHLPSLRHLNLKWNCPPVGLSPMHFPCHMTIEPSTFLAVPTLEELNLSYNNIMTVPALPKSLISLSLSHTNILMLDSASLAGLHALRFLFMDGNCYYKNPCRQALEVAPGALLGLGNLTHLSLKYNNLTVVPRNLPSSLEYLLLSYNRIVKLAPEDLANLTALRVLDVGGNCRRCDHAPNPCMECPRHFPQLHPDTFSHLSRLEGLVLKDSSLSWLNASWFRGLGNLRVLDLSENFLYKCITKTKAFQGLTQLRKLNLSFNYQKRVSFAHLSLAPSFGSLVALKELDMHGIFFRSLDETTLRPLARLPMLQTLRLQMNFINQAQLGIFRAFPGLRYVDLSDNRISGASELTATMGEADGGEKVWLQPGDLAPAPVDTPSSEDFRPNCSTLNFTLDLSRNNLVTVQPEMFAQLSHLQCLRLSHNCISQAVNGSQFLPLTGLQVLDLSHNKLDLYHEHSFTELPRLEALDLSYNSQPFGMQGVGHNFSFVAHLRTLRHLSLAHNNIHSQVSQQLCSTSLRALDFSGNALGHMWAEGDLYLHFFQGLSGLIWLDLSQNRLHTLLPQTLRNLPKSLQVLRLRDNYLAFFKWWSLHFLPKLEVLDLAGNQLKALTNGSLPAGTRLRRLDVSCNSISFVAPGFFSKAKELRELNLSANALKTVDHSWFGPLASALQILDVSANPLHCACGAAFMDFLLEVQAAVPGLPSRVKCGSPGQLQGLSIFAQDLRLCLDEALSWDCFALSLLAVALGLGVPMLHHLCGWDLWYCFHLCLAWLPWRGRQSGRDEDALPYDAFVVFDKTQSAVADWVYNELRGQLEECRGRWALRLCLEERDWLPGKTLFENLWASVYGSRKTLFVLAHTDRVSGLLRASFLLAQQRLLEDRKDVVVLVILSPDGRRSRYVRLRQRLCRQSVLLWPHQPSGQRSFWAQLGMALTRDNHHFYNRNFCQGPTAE
Assay: Antagonism Assay: Day 1: A cell suspension of HEK-Blue™-hTLR9 cells at ~450,000 cells per ml in test medium which contained 5% (v/v) heat inactivated FBS was prepared. 180 μl of cell suspension (Ë¿80,000 cells) was added per well of a flat-bottom 96-well plate and place in an incubator at 37° C. for overnight. Day 2: Test compounds were serially diluted in test medium, generally starting at 10 μM, and diluting by 3 fold in a 96 well master plate. 20 μl of diluted test compound was transferred using a 12 channel multi-channel pipet to the cell plate and incubated at 37° C. for 1 hour. Then 20 μl of an hTLR9 agonist (such as ODN 2006, 1 μM) was added to each well and the plate incubated at 37° C. overnight. Day 3: Invivogen's QUANTI-Blue™ was prepared following the manufacturer's instructions. […] of resuspended QUANTI-Blue™ was added per well of a flat bottom 96-well plate. 20 μl per well of induced HEK-Blue™-hTLR9 cells supernatant was then added to the plate and the plate was incubated at 37° C. for 1-3 h. SEAP levels were determined using a spectrophotometer at 620 nm.

Structure (SMILES) | IC50 [nM]
CN1CCN(c2cnc3c(NCCSC(=N)N)nc(-c4ccccc4)nc3n2)CC1 | > 10000
N#Cc1ccc(-c2nc3c(NCCN4CCOCC4)nc(-c4ccccc4)nc3n(CCN3CCOCC3)c2=O)cc1 | 487
CN1CCN(c2nc3nc(-c4ccc(C(C)(C)C)cc4)nc(NCCN4CCOCC4)c3nc2NCCN2CCOCC2)CC1 | 273
Cc1nc2c(NCCN3CCOCC3)nc(-c3ccccc3)nc2n(CCN2CCOCC2)c1=O | 2480
O=c1c(C(F)(F)F)nc2c(NCCN3CCOCC3)nc(-c3ccccc3)nc2n1CCN1CCOCC1 | 3820
CN1CCN(c2nc3nc(-c4ccccc4)nc(NCCN4CCOCC4)c3nc2NCCN2CCOCC2)CC1 | 317
CN1CCN(c2cnc3c(NCCc4ccccn4)nc(-c4ccccc4)nc3n2)CC1 | 2180
Cc1cnc(CNc2nc(-c3ccccc3)nc3nc(N4CCN(C)CC4)cnc23)cn1 | 2490
CN1CCN(c2cnc3c(NCCCn4cncn4)nc(-c4ccccc4)nc3n2)CC1 | 2950
O=c1c(-c2cc(F)cc(F)c2)nc2c(NCCN3CCOCC3)nc(-c3ccccc3)nc2n1CCN1CCOCC1 | 901
CN1CCN(c2nc3nc(-c4ccccc4)nc(NCCN4CCOCC4)c3nc2Cl)CC1 | 62
O=c1c(-c2ccccc2)nc2c(NCCN3CCOCC3)nc(-c3ccccc3)nc2n1CCN1CCOCC1 | 137
CN1CCN(c2ccc(-c3nc(NCCN4CCOCC4)c4nccnc4n3)cc2)CC1 | 285
CN(C)CCN(C)c1nc(-c2ccccc2)nc2nc(N3CCN(C)CC3)cnc12 | 112
CN1CCN(CCNc2nc(-c3ccccc3)nc3nc(N4CCN(C)CC4)cnc23)CC1 | 113
CN1CCN(c2cnc3c(NCCCNc4nc(N)nc(N)n4)nc(-c4ccccc4)nc3n2)CC1 | 198
CN1CCN(CCNc2nc(-c3ccccc3)nc3c2nc(-c2ccccc2)c(=O)n3CCN2CCN(C)CC2)CC1 | 124
CN1CCN(c2cnc3c(NCCc4ccncc4)nc(-c4ccccc4)nc3n2)CC1 | 991
